# Measurements reported in the Bradley open melting point set (2014).
# Values joined by “and” are separate entries in the source; they are usually repeats but may differ in a detail not shown here. Identical values can stand only once.
row,SMILES,melting point
1,O=S1(=O)OC(c2cc(Br)c(O)c(Br)c2)(c2cc(Br)c(O)c(Br)c2)c2ccccc21,204 °C
2,CC(CCc1oc2c(Br)cc(Br)cc2c1-c1ccc(C)o1)=NO,158 °C
3,C(=C\c1nn2c(COc3ccccc3)nnc2s1)/c1ccccc1,142 °C
4,CC(=O)O[C@@H]1[C@@H](OC(C)=O)[C@H](C)O[C@H](C#N)[C@@H]1OC(C)=O,130 °C
5,CCCCc1c2c(cc3c1-c1ccccc1OC3)CC(C)(C)CC2=O,87 °C
6,C/C(=C(/C#N)c1nc2ccccc2s1)c1cc2ccccc2oc1=O,156 °C
7,C/C(OC/C(=N/NC(N)=O)c1ccccc1)=C(\C#N)c1ccccc1,157 °C
8,C=C(C)[C@H]1Cc2c(ccc3c2O[C@@H]2COc4cc(OC)c(OC)cc4[C@@H]2C3=O)O1,166 °C
9,CC(/C=C(\C)C#Cc1ccccc1)=N/Nc1ccc([N+](=O)[O-])cc1[N+](=O)[O-],198 °C
10,CC(=O)/C(=N/Nc1ccc(Cl)cc1)C(=O)C(F)(F)F,125 °C
11,CC(=O)/C(=N/Nc1cccc(C(F)(F)F)c1)C(=O)C(F)(F)F,86 °C
12,COc1cc2c(c(OC)c1OC)-c1ccc(OC)c(=O)cc1[C@@H](NC(C)=O)CC2,142 °C
13,CC(=O)ON(/C=C1\C(=O)C2(C)CCC1C2(C)C)c1ccccc1 (centres undefined),163 °C
14,CC(=O)O[C@@H]1CCC2(C)C(CCC3C2CCC2(C)C3CC[C@]2(O)/C=C/c2ccccc2)C1 (some centres undefined),162 °C
15,CC(C)CC1=C/C(=C/c2ccc(-c3ccc([N+](=O)[O-])cc3)o2)C(=O)O1,163 °C
16,CC(C)CC1=C/C(=C/c2ccc(-c3ccccc3)o2)C(=O)O1,76 °C
17,CC1(C)C2CCC1(C)C(O)/C2=C\CC(=O)O (centres undefined),52 °C
18,CC12CCC(/C(=C/Nc3ccccc3)C1=O)C2(C)C (centres undefined),166 °C
19,CC12CCC(/C(=C\Nc3ccccc3C(=O)O)C1=O)C2(C)C (centres undefined),112 °C
20,CC12CCC(C(=O)/C(=C\c3ccccc3[N+](=O)[O-])C1=O)C2(C)C (centres undefined),141 °C
21,CC12CCC(C(O)=C/C1=N\Nc1ccccc1)C2(C)C (centres undefined),182 °C
22,Cc1ccc2c(c1)-c1c(cc3c(c1-c1ccccc1)C(=O)CC(C)(C)C3)CO2,199 °C
23,CCC1=C(/C=N/Nc2ccc([N+](=O)[O-])cc2[N+](=O)[O-])CCCC1,194 °C
24,CCCCCCCCCCCCCCCCCC(=O)O[C@H]1[C@H](O[C@@H]2[C@@H](C)[C@H](O[C@H]3C[C@@](C)(OC)[C@@H](O)[C@H](C)O3)[C@@H](C)C(=O)O[C@H](CC)[C@@](C)(O)[C@H](O)[C@@H](C)C(=O)[C@H](C)C[C@@]2(C)O)O[C@H](C)C[C@@H]1N(C)C,102 °C
25,CCCCCCCCCCOc1ccc(/C=N/c2ccc(/C=C/C(=O)OCC)cc2)cc1,115 °C

row,SMILES,melting point
1,CCOC(=O)/C(=N\Nc1ccccc1)C(=O)C(F)(F)F,81 °C
2,CCOC(=O)/C(C(N)=S)=C1/NN=C(c2ccc(Cl)cc2)O1,176 °C
3,CCOC(=O)Cc1cc(/C(=N/Nc2ccccc2)C(=O)OCC)c([N+](=O)[O-])cc1[N+](=O)[O-],155 °C
4,CN(C)c1ccc(/C=C(\C#N)c2nc(-c3cccc4ccccc34)cs2)cc1,129 °C
5,CN(C)c1ccc(/C=C2\C(=O)C3CCC(C)(C2=O)C3(C)C)cc1 (centres undefined),153 °C
6,COC(=O)c1c(N)sc2c1CCCC2,128 °C
7,CCNc1nc(NC(C)(C)C)nc(SC)n1,104 °C
8,C[Si](C)(C)c1c2c(cc3c1-c1ccccc1OC3)CCCC2=O,159 °C
9,C[Si]1(C)O[Si](C)(C)O[Si](C)(C)O[Si](C)(C)O[Si](C)(C)O1,-44 °C
10,Cc1cc(C(F)(F)F)n2nc(N)c(/N=N/c3c(Br)cc(Br)cc3Br)c2n1,99 °C
11,Cc1cc(C)c(NC(=O)CN(CC(=O)O)CC(=O)O)c(C)c1Br,194 °C
12,Cc1ccc(-c2ccc(/C=C/C(=O)c3ccco3)o2)cc1,111 °C
13,Cc1ccc(-c2ccc(/C=C3\N=C(c4ccccc4)OC3=O)o2)cc1,150 °C
14,Cc1ccc(/C=C(/C#N)c2nc(-c3ccccc3)cs2)cc1,79 °C
15,Cc1ccc(/C=C(\C(N)=O)c2nc3ccccc3s2)cc1,149 °C
16,Cc1ccc(O)c(/N=N/c2c(O)cc(S(=O)(=O)O)c3ccccc23)c1,300 °C
17,Cc1ccccc1/N=N/c1ccc(/N=N/c2c(O)ccc3ccccc23)c(C)c1,199 °C
18,Cl/C(Cl)=C/C3C(C(=O)OC(C#N)c2cccc(Oc1ccccc1)c2)C3(C)C (centres undefined),68.5 °C
19,Cl/C(Cl)=C/C3C(C(=O)OCc2cccc(Oc1ccccc1)c2)C3(C)C (centres undefined),34 °C
20,O=Cc1ccc2c(c1[N+](=O)[O-])C(=O)c1c(Cl)c(Cl)c(Cl)c(Cl)c1C2=O,267 °C
21,COC1=CC(=O)CC(C)C12Oc1c(Cl)c(OC)cc(OC)c1C2=O (centres undefined),219 °C
22,O=C(O)c1ccc(N2C(=O)C3ON=C(C(=O)c4ccc(Cl)cc4)C3C2=O)cc1 (centres undefined),144 °C
23,Oc1cc(C(F)(F)F)n2nc(-c3ccc(Cl)cc3)cc2n1,156 °C
24,O=C(Nc1ccc([N+](=O)[O-])cc1[N+](=O)[O-])C(C(F)(F)F)C(F)(F)F,121 °C
25,CCOC(=O)c1ccc(NC(=O)C(F)(F)C(F)(F)C(F)(F)C(F)(F)C(F)(F)C(F)(F)C(F)(F)C(F)(F)F)cc1,136 °C

row,SMILES,melting point
1,Fc1ccc(/C=N/n2c(S)nnc2C(F)(F)F)cc1,212 °C
2,Fc1ccc(C2(Cn3cncn3)OC2c2ccccc2Cl)cc1 (centres undefined),125 °C
3,N#C/C(=C\c1ccc(Cl)cc1)c1nc(-c2ccccc2)cs1,104 °C
4,Cn1nc(CC#N)c2c(N)ncnc21,137 °C
5,c1ccc2c(c1)CC1(OCCO1)c1ccccc1CC21OCCO1,144 °C
6,O=C(/C(=N/Nc1cccnc1)C(=O)C(F)(F)F)c1cccs1,151 °C
7,O=C(/C=C1\Cc2ccccc21)c1ccccc1,55 °C
8,CN(C)c1ccc([N+]([O-])=CC(=O)c2ccc(C(=O)C=[N+]([O-])c3ccc(N(C)C)cc3)cc2)cc1,133 °C
9,CCCCC(=O)N(Cc1ccc(-c2ccccc2-c2nnn[nH]2)cc1)C(C(=O)O)C(C)C (centres undefined),116 °C
10,C#CC1(O)CCC2C3CC=C4C=C(C(C)(C)C(=O)O)CCC4(C)C3CCC21C (centres undefined),259 °C
11,CCCC(O)(CCC)C1(C)CCC(C(=O)O)C(C)(C)O1 (centres undefined),112 °C
12,CC(C)(C)c1ccc(C2CCC3(CC2)Cc2ccc(C(=O)Nc4ccccc4OCCCC(=O)O)cc2C3)cc1 (centres undefined),147 °C
13,O=C(O)CCc1ccccc1,49 °C
14,Cc1ccc(C)c(C(=O)O)c1,134 °C
15,O=C(O)c1cc(Cl)ccc1/N=N/C1SC(=S)NC1=O (centres undefined),211 °C
16,CCOC(=O)c1cc(-c2ccccc2)n(-c2ccc(Cl)cc2Cl)n1,124 °C
17,CC(=O)NC1C(OC(C)=O)OC(COC(C)=O)C(OC(C)=O)C1OC(C)=O (centres undefined),140 °C
18,CC(=O)OCC1OC(OCc2ccccc2)C(OC(C)=O)C(OC(C)=O)C1OC(C)=O (centres undefined),98 °C
19,CCCCOC(=O)[C@@H](C)Oc1ccc(Oc2ccc(C(F)(F)F)cn2)cc1,5 °C
20,CC12CCC(C(=CC=C3C(=O)C4(C)CCC3C4(C)C)C1=O)C2(C)C,240 °C
21,CC12CCC(C1(C)C)C(CCCc1ccccc1)(C1(CCCc3ccccc3)C(=O)C3(C)CCC1C3(C)C)C2=O (centres undefined),162 °C
22,CC12CCC3C(CCC4(C)CC5(CCC34C)OCCO5)C1CCC2=O (centres undefined),159 °C
23,CC(NC(=O)COCCN1C(=O)c2ccccc2C1=O)C(=O)NC(CCC(=O)O)C(=O)O (centres undefined),194 °C
24,O=C1OC(=O)C23Cc4ccccc4CC12Cc1cc2c(cc1C3)CC2 (centres undefined),250 °C
25,CCC1OC(=O)C(C)C(OC2CC(C)(OC)C(O)C(C)O2)C(C)C(OC2OC(C)CC(N(C)C)C2O)C(C)(O)CC(C)C(=O)C(C)C(O)C1(C)O (centres undefined),135 °C

row,SMILES,melting point
1,CCOC(=O)c1cc2c(oc1=O)-c1ccc(OC)cc1CC2,142 °C
2,C=C(C)[C@@H]1CCC2=CC(=O)C[C@@H](C)[C@]2(C)C1,36.9 °C
3,O=[N+]([O-])c1ccc(-c2nnc3sc(/C=C/c4ccccc4)nn23)cc1,113 °C
4,CC(CCc1oc2ccc([N+](=O)[O-])cc2c1-c1ccc(C)o1)=NO,161 °C
5,CC1(C)OC(=O)C(=Cc2cccc([N+](=O)[O-])c2)C(=O)O1,177 °C
6,COc1cc(/C=C/C(=O)c2ccccc2O)ccc1O,129 °C (2×) and 128 °C
7,CC(C)(C)NCC(O)COc1cccc2c1CC(O)C(O)C2 (centres undefined),124 °C
8,COc1ccc2c(c1)CC1(CCC(O)(c3ccc(C(C)(C)C)cc3)CC1)C2O (centres undefined),104 °C
9,OC[C@H]1O[C@H](O[C@H]2[C@H](O)[C@@H](O)[C@@H](O[C@H]3[C@H](O)[C@@H](O)C(O)O[C@@H]3CO)O[C@@H]2CO)[C@H](O)[C@@H](O)[C@@H]1O (some centres undefined),133 °C
10,CC(C)(C)c1ccc(C2CCC3(CC2)Cc2ccc(O)cc2C3)cc1 (centres undefined),131 °C
11,CSC(SC)=C1CCCC(=C(SC)SC)C1=C(C#N)C#N,156 °C
12,CCSC(SCC)C(OC(C)=O)C(OC(C)=O)C(OC(C)=O)C(COC(C)=O)OC(C)=O (centres undefined),112 °C
13,CCOC(=O)C1=C(C)NC(=S)NC1c1ccccc1 (centres undefined),205 °C
14,[C-]#[N+]c1cnn(-c2ncnc3c2cnn3C)c1/C=C/OCC,155 °C
15,CC(O[S+]([O-])C(C)(C)C)C(O)(c1ccccc1)c1ccccc1 (centres undefined),136 °C
16,CC(Cc1oc2c(c3c(c4ccccc42)OC2CC(=O)OC32)c(=O)c1[Si](C)(C)C)O[Si](C)(C)C(C)(C)C (centres undefined),190 °C
17,CC(CC1CC(=O)c2c3c(c4ccccc4c2O1)OC1CC(=O)OC31)O[Si](C)(C)C(C)(C)C (centres undefined),132 °C
18,O=C(O)c1cnn(-c2ccc([N+](=O)[O-])cc2)c1C(F)(F)F,201 °C
19,COc1ccc(-c2csc(C(C#N)=Cc3ccc(O)cc3)n2)cc1,186 °C
20,COc1ccc(-c2csc(C(C#N)=Cc3cccs3)n2)cc1,141 °C
21,"O[C@H](CS)[C@H](O)CS (racemic) [1,4-dithio-dl-threitol]",42 °C
22,"N[C@@H](Cc1ccc(F)c(F)c1)C(=O)O (racemic) [3,4-difluoro-dl-phenylalanine]",233 °C
23,CC1CCC(C(C)C)C(O)C1 (racemic) [dl-menthol],29 °C
24,"O[C@H]1CCCC[C@@H]1O (relative stereo) [trans-1,2-cyclohexanediol]",104 °C
